Results from patent US10208089B2, “Modulation of complement activity” (priority 2014, dated 2019).
Starred links: 1 amine or outer side, 2 acyl side, 3 side chain; linkers in the order of their positions; H or OH if unused. Positions of bridges follow the written chain, without caps; N, C: chain ends. Non-standard residues stand in square brackets, D forms with d. Residues, ends and D or L forms follow the SMILES beside them. Trp(5-F) = N[C@@H](Cc1c[nH]c2ccc(F)cc12)C(=O)O; Trp(7-aza) = N[C@@H](Cc1c[nH]c2ncccc12)C(=O)O; NMePhe(4-F) = CN[C@@H](Cc1ccc(F)cc1)C(=O)O; Phe(4-F) = N[C@@H](Cc1ccc(F)cc1)C(=O)O; Phg(2-OMe) = COc1ccccc1[C@H](N)C(=O)O; mXylylene = c1cc(C[*:1])cc(C[*:2])c1; pXylylene = c1cc(C[*:2])ccc1C[*:1]; Chg = N[C@H](C(=O)O)C1CCCCC1; Phg = N[C@H](C(=O)O)c1ccccc1; Tle = CC(C)(C)[C@H](N)C(=O)O; NMeS = CN[C@@H](CO)C(=O)O; Nva = CCC[C@H](N)C(=O)O

Biological target: C5 (Homo sapiens, UniProt P01031)
Sequence (P01031 19-1676): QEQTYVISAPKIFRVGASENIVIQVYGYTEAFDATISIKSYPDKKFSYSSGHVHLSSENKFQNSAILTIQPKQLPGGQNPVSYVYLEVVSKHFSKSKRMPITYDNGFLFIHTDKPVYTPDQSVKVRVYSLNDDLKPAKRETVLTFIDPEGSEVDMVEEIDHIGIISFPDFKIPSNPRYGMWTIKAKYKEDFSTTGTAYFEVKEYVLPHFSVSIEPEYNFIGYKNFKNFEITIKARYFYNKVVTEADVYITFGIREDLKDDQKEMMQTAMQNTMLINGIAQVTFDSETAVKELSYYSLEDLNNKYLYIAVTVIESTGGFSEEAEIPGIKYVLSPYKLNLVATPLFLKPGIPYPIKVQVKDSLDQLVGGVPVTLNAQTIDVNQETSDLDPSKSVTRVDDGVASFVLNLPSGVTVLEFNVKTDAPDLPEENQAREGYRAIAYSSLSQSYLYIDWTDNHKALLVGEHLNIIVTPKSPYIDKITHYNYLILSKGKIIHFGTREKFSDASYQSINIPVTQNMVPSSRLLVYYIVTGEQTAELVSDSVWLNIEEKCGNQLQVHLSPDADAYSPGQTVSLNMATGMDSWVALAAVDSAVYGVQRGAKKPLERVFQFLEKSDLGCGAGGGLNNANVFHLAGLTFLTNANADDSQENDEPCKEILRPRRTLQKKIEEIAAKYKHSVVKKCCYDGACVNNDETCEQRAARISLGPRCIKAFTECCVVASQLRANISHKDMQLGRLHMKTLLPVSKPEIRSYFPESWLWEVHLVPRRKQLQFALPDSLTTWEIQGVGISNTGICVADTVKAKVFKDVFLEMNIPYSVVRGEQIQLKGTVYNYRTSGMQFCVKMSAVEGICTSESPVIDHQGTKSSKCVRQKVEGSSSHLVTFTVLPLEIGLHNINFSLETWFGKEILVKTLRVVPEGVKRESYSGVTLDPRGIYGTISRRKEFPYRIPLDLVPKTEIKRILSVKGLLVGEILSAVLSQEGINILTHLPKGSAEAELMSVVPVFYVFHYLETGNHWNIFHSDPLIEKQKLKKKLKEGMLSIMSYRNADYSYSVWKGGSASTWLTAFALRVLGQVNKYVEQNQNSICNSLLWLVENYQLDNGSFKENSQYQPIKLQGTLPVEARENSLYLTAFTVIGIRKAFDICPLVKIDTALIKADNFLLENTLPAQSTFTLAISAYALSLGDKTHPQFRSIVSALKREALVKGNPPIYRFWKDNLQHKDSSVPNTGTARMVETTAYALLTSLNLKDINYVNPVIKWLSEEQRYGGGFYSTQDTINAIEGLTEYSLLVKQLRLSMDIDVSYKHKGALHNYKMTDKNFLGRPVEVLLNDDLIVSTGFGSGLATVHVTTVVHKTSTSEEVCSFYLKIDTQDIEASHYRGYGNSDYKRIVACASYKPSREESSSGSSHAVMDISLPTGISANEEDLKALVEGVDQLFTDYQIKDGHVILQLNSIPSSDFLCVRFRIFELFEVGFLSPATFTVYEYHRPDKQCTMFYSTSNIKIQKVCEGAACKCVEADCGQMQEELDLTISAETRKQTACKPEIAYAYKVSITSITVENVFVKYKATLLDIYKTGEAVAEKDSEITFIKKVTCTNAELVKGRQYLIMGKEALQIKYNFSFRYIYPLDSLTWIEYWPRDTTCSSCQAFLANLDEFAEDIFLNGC
Assay: Human hemolysis assay (RBC lysis assay using complete human sera)
Type: cell-based
Set-up: with complete human sera (Complement Technology, Tyler Tex.) and polypeptides; tissue Complement Technology, Tyler Tex; host or cells: complete human serum
[1] = inhibition of lysis of antibody-sensitized sheep erythrocytes, complete human sera

SMILES: CCC[C@H](NC(=O)[C@@H]1CSCc2ccc(cc2)CSC[C@H](NC(=O)[C@H](CCC)NC(C)=O)C(=O)N[C@@H](c2ccccc2)C(=O)N[C@@H]([C@@H](C)O)C(=O)N[C@@H](Cc2c[nH]c3ncccc23)C(=O)N[C@@H](CCC(=O)O)C(=O)N[C@@H](Cc2ccc(O)cc2)C(=O)N2CCC[C@H]2C(=O)N[C@@H](Cc2c[nH]cn2)C(=O)N1)C(N)=O [Compound R3065, [pXy1y1(2,10)]Ac-Nvl-C-PhE-T-azaTrp-E-Y-P-H-C-Nvl-NH2] (Ac-[Nva]C[Phg]T[Trp(7-aza)]EYPHC[Nva]-NH2; linker 2-10 via pXylylene)
- IC50 [1]: 0.394 µM

SMILES: CCC[C@H](NC(C)=O)C(=O)N[C@@H](CCC)C(=O)N[C@@H](Cc1ccc(O)cc1)C(=O)N[C@@H](CCC(=O)O)C(=O)N[C@@H](CC(N)=O)C(=O)N[C@H](C(=O)N[C@@H](Cc1ccc(O)cc1)C(=O)N[C@@H](Cc1c[nH]c2ncccc12)C(=O)N[C@@H](CCC(=O)O)C(=O)N[C@@H](Cc1ccc(O)cc1)C(=O)N1CCC[C@H]1C(=O)N[C@H](C(=O)N[C@@H](CCC)C(=O)N[C@@H](CCCCN)C(N)=O)C1CCCCC1)C(C)(C)C [Compound R3072, Ac-Nvl-Nvl-Y-E-N-Tbg-Y-azaTrp-E-Y-P-Chg-Nvl-K-NH2] (Ac-[Nva][Nva]YEN[Tle]Y[Trp(7-aza)]EYP[Chg][Nva]K-NH2)
- IC50 [1]: 0.0269 µM

SMILES: CCC[C@H](NC(=O)[C@@H]1CSCc2cccc(c2)CSC[C@H](NC(=O)[C@H](CCC)NC(C)=O)C(=O)N[C@@H](c2ccccc2)C(=O)N[C@@H]([C@@H](C)O)C(=O)N[C@@H](Cc2c[nH]c3ncccc23)C(=O)N[C@@H](CCC(=O)O)C(=O)N[C@@H](Cc2ccc(F)cc2)C(=O)N(C)[C@@H](CO)C(=O)N[C@@H](Cc2c[nH]cn2)C(=O)N1)C(N)=O [Compound R3073, [mXyly1(2,10)]Ac-Nvl-C-Phg-T-azaTrp-E-Phe(4-F)-(N-Me)S-H-C-Nvl-NH2] (Ac-[Nva]C[Phg]T[Trp(7-aza)]E[Phe(4-F)][NMeS]HC[Nva]-NH2; linker 2-10 via mXylylene)
- IC50 [1]: 0.403 µM

SMILES: CCC[C@H](NC(=O)[C@@H]1CSCc2cccc(c2)CSC[C@H](NC(=O)[C@H](CCC)NC(C)=O)C(=O)N[C@@H](c2ccccc2)C(=O)N[C@@H]([C@@H](C)O)C(=O)N[C@@H](Cc2c[nH]c3ncccc23)C(=O)N[C@@H](CCC(=O)O)C(=O)N[C@@H](Cc2ccc(OC)cc2)C(=O)N(C)[C@@H](CO)C(=O)N[C@@H](Cc2c[nH]cn2)C(=O)N1)C(N)=O [Compound R3074, [mXylyl(2,10)]Ac-Nvl-C-Phg-T-azaTrp-E-Tyr(OMe)-(N-Me)S-H-C-Nvl-NH2] (Ac-[Nva]C[Phg]T[Trp(7-aza)]EY(Me)[NMeS]HC[Nva]-NH2; linker 2-10 via mXylylene)
- IC50 [1]: 0.308 µM

SMILES: CCC[C@H](N)C(=O)N[C@H]1CSCc2cccc(c2)CSC[C@@H](C(N)=O)NC(=O)CNC(=O)[C@H](Cc2ccc(F)cc2)N(C)C(=O)[C@H](Cc2c[nH]cn2)NC(=O)[C@H](CO)N(C)C(=O)[C@H](Cc2ccc(F)cc2)N(C)C(=O)[C@H](c2ccccc2)NC(=O)[C@H](CO)N(C)C(=O)[C@H](Cc2ccc(O)cc2)NC1=O [Compound R3075, [mXylyl(2,11)]Nvl-C-Y-(N-Me)S-Phg-(N-Me-4-F)Phe-(N-Me)S-H-(N-Me-4-F)Phe-G-C-NH2] (H-[Nva]CY[NMeS][Phg][NMePhe(4-F)][NMeS]H[NMePhe(4-F)]GC-NH2; linker 2-11 via mXylylene)
- IC50 [1]: > 75 µM

SMILES: CCC[C@H](NC(=O)[C@@H]1CSCc2cccc(c2)CSC[C@H](NC(=O)[C@H](CCC)NC(C)=O)C(=O)N[C@@H](c2ccccc2)C(=O)N[C@@H]([C@@H](C)O)C(=O)N[C@@H](Cc2c[nH]c3ncccc23)C(=O)N[C@@H](CCC(=O)O)C(=O)N[C@@H](Cc2ccc(O)cc2)C(=O)N(C)[C@@H](CO)C(=O)N1)C(N)=O [Compound R3080, [mXylyl(2,9)]Ac-Nvl-C-Pha-T-azaTrp-E-Y-(N-Me)S-C-Nvl-NH2] (Ac-[Nva]C[Phg]T[Trp(7-aza)]EY[NMeS]C[Nva]-NH2; linker 2-9 via mXylylene)
- IC50 [1]: > 50 µM

SMILES: CCC[C@H](NC(=O)[C@@H]1CSCc2cccc(c2)CSC[C@H](NC(=O)[C@@H](NC(C)=O)C(C)C)C(=O)N[C@@H](c2ccccc2)C(=O)N[C@@H]([C@@H](C)O)C(=O)N[C@@H](Cc2c[nH]c3ncccc23)C(=O)N[C@@H](CCC(=O)O)C(=O)N[C@@H](Cc2ccc(O)cc2)C(=O)N(C)[C@@H](CO)C(=O)N[C@@H](C)C(=O)N1)C(N)=O [Compound R3083, [mXylyl(2,10)]Ac-V-C-Phg-T-azaTrp-E-Y-(N-Me)S-A-C-Nvl-NH2] (Ac-VC[Phg]T[Trp(7-aza)]EY[NMeS]AC[Nva]-NH2; linker 2-10 via mXylylene)
- IC50 [1]: > 25 µM

SMILES: CCC[C@H](NC(=O)[C@@H]1CSCc2cccc(c2)CSC[C@H](NC(=O)[C@H](CCC)NC(C)=O)C(=O)N[C@@H](c2ccccc2)C(=O)N[C@@H]([C@@H](C)O)C(=O)N[C@@H](Cc2c[nH]c3ncccc23)C(=O)N[C@@H](CCC(=O)O)C(=O)N[C@@H](Cc2ccc(O)cc2)C(=O)N[C@@H](CO)C(=O)N[C@@H](C)C(=O)N1)C(N)=O [Compound R3084, [mXylyl(2,10)]Ac-Nvl-C-Phg-T-azaTrp-E-Y-S-A-C-Nvl-NH2] (Ac-[Nva]C[Phg]T[Trp(7-aza)]EYSAC[Nva]-NH2; linker 2-10 via mXylylene)
- IC50 [1]: > 100 µM

SMILES: CCC[C@H](NC(=O)[C@@H]1CSCc2cccc(c2)CSC[C@H](NC(=O)[C@H](CCC(=O)O)NC(=O)[C@H](Cc2ccc(O)cc2)NC(=O)[C@H](CO)NC(=O)[C@H](CCC)NC(C)=O)C(=O)N[C@@H](C(C)(C)C)C(=O)N[C@@H](Cc2ccc(O)cc2)C(=O)N[C@@H](Cc2c[nH]c3ncccc23)C(=O)N[C@@H](CCC(=O)O)C(=O)N[C@@H](Cc2ccc(O)cc2)C(=O)N2CCC[C@H]2C(=O)N[C@@H](C2CCCCC2)C(=O)N1)C(N)=O [Compound R3086, [mXylyl(5,13)]Ac-Nvl-S-Y-E-C-Tbg-Y-azaTrp-E-Y-P-Chg-C-Nvl-NH2] (Ac-[Nva]SYEC[Tle]Y[Trp(7-aza)]EYP[Chg]C[Nva]-NH2; linker 5-13 via mXylylene)
- IC50 [1]: > 50 µM

SMILES: CCC[C@H](NC(=O)[C@@H]1CSCc2cccc(c2)CSC[C@H](NC(=O)[C@H](CCC)NC(C)=O)C(=O)N[C@@H](c2ccccc2OC)C(=O)N[C@@H]([C@@H](C)O)C(=O)N[C@@H](Cc2c[nH]c3ncccc23)C(=O)N[C@@H](CCC(=O)O)C(=O)N[C@@H](Cc2ccc(O)cc2)C(=O)N(C)[C@@H](CO)C(=O)N[C@@H](Cc2c[nH]cn2)C(=O)N1)C(N)=O [Compound R3087, [mXylyl(2,10)]Ac-Nvl-C-(2-OMe)Phg-T-azaTrp-E-Y-(N-Me)S-H-C-Nvl-NH2] (Ac-[Nva]C[Phg(2-OMe)]T[Trp(7-aza)]EY[NMeS]HC[Nva]-NH2; linker 2-10 via mXylylene)
- IC50 [1]: > 25 µM

SMILES: CCC[C@H](NC(=O)[C@@H]1CSCc2cccc(c2)CSC[C@H](NC(=O)[C@H](CCC)NC(C)=O)C(=O)N[C@@H](c2ccccc2)C(=O)N[C@@H]([C@@H](C)O)C(=O)N[C@@H](Cc2c[nH]c3ccc(F)cc23)C(=O)N[C@@H](CCC(=O)O)C(=O)N[C@@H](Cc2ccc(O)cc2)C(=O)N(C)[C@@H](CO)C(=O)N[C@@H](C)C(=O)N1)C(N)=O [Compound R3088, [mXyly1(2,10)]Ac-Nvl-C-Phg-T-(5-F)W-E-Y-(N-Me)S-A-C-Nvl-NH2] (Ac-[Nva]C[Phg]T[Trp(5-F)]EY[NMeS]AC[Nva]-NH2; linker 2-10 via mXylylene)
- IC50 (7-azatryptophan variant polypeptides of R3008, inhibition of red blood cell lysis): > 100 µM
- IC50 [1]: > 100 µM
